Laboratory results published in patent US20240228535A1 (priority 2022, published 2024).

The molecules below were run against SARS2 coronavirus 3CL protease (Severe acute respiratory syndrome coronavirus 2, UniProt P0DTD1) (assay: biochemical). Details: 5 nM enzyme, 30 min pre-incubation with compound, 15 μM peptide substrate, 4 h at room temperature; read-out: FRET Potency (nM); IC50 values in the SARS2 3CLPro FRET assay.
`C[C@@H]1C[C@@H](C[C@H](NC(=O)c2cc(C(F)F)ccc2NC(=O)C2(C(F)(F)F)CC2)C(=O)C(=O)NC2CC2)C(=O)N1` [Example 220, N-[(1S)-3-(cyclopropylamino)-1-[[(3S,5R)-5-methyl-2-oxo-pyrrolidin-3-yl]methyl]-2,3-dioxo-propyl]-5-(difluoromethyl)-2-[[1-(trifluoromethyl)cyclopropane-carbonyl]amino]benzamide] was tested, and the IC50 was 60.3 nM. Work on `CNC(=O)C(=O)[C@H](C[C@@H]1C[C@@H](C)NC1=O)NC(=O)c1cc(Cl)ccc1NC(=O)[C@@H](N(C)C(=O)OC)C(C)(C)C` [Example 221] yielded an IC50 of 41.9 nM. `CNC(=O)C(=O)[C@H](C[C@@H]1C[C@@H](C)NC1=O)NC(=O)c1cc(C(F)F)ccc1NC(=O)c1ccnc(C(F)(F)F)c1` [Example 222, N-[4-(difluoromethyl)-2-[[(1S)-3-(methylamino)-1-[[(3S,5R)-5-methyl-2-oxo-pyrrolidin-3-yl]methyl]-2,3-dioxo-propyl]carbamoyl]phenyl]-2-(trifluoromethyl)pyridine-4-carboxamide] showed an IC50 of 5.2 nM. `CNC(=O)C(=O)[C@H](C[C@@H]1C[C@@H](C)NC1=O)NC(=O)c1cc(Cl)c(F)cc1NC(=O)c1ccc(C(F)(F)F)nc1` [Example 223, N-[4-chloro-5-fluoro-2-[[(1S)-3-(methylamino)-1-[[(3S,5R)-5-methyl-2-oxo-pyrrolidin-3-yl]methyl]-2,3-dioxo-propyl]carbamoyl]phenyl]-6-(trifluoromethyl)pyridine-3-carboxamide] was tested, and the IC50 was 9 nM. For `CNC(=O)C(=O)[C@H](C[C@@H]1C[C@@H](C)NC1=O)NC(=O)c1cc(Cl)cc(F)c1NC(=O)c1ccnc(C(F)(F)F)c1` [Example 224, N-[4-chloro-2-fluoro-6-[[(1S)-3-(methylamino)-1-[[(3S,5R)-5-methyl-2-oxo-pyrrolidin-3-yl]methyl]-2,3-dioxo-propyl]carbamoyl]phenyl]-2-(trifluoromethyl)pyridine-4-carboxamide], the IC50 was 7.2 nM. In the case of `C[C@@H]1C[C@@H](C[C@H](NC(=O)c2cc(Cl)ccc2NC(=O)c2ccc(C(F)(F)F)nc2)C(=O)C(=O)NC2CC2)C(=O)N1` [Example 225, N-[4-chloro-2-[[(1S)-3-(cyclopropylamino)-1-[[(3S,5R)-5-methyl-2-oxo-pyrrolidin-3-yl]methyl]-2,3-dioxo-propyl]carbamoyl]phenyl]-6-(trifluoromethyl)pyridine-3-carboxamide], the IC50 is reported as 6.8 nM. For `C[C@@H]1C[C@@H](C[C@H](NC(=O)c2cc(Cl)ccc2NC(=O)c2cnc(C(F)(F)F)cn2)C(=O)C(=O)NC2CC2)C(=O)N1` [Example 226, N-[4-chloro-2-[[(1S)-3-(cyclopropylamino)-1-[[(3S,5R)-5-methyl-2-oxo-pyrrolidin-3-yl]methyl]-2,3-dioxo-propyl]carbamoyl]phenyl]-5-(trifluoromethyl)pyrazine-2-carboxamide], the IC50 was 19.1 nM. Work on `CNC(=O)C(=O)[C@H](C[C@@H]1C[C@@H](C)NC1=O)NC(=O)c1cc(Cl)ccc1NC(=O)C(C)c1ccnc(C(F)(F)F)c1` (stereo partly drawn) [Example 227, 5-chloro-N-[(1S)-3-(methylamino)-1-[[(3S,5R)-5-methyl-2-oxo-pyrrolidin-3-yl]methyl]-2,3-dioxo-propyl]-2-[2-[2-(trifluoromethyl)-4-pyridyl]propanoylamino] benzamide] yielded an IC50 of 7.4 nM. Work on `CNC(=O)C(=O)[C@H](C[C@@H]1C[C@@H](C)NC1=O)NC(=O)c1cc(Cl)ccc1NC(=O)C(C)c1ccnc(C(F)(F)F)c1` (stereo partly drawn) [Example 228, 5-chloro-N-[(1S)-3-(methylamino)-1-[[(3S,5R)-5-methyl-2-oxo-pyrrolidin-3-yl]methyl]-2,3-dioxo-propyl]-2-[2-[2-(trifluoromethyl)-4-pyridyl]propanoylamino] benzamide] yielded an IC50 of 6.1 nM. Work on `CNC(=O)C(=O)[C@H](C[C@@H]1C[C@@H](C)NC1=O)NC(=O)c1cc(Cl)cc(Cl)c1NC(=O)c1ccnc(C(F)(F)F)c1` [Example 231, N-[2,4-dichloro-6-[[(1S)-3-(methylamino)-1-[[(3S,5R)-5-methyl-2-oxo-pyrrolidin-3-yl]methyl]-2,3-dioxo-propyl]carbamoyl]phenyl]-2-(trifluoromethyl)pyridine-4-carboxamide] yielded an IC50 of 5.6 nM. Molecule `C[C@@H]1C[C@@H](C[C@H](NC(=O)c2cc(C(F)F)ccc2NC(=O)c2ccnc(C(F)(F)F)c2)C(=O)C(=O)NC2CC2)C(=O)N1` [Example 232, N-[2-[[(1S)-3-(cyclopropylamino)-1-[[(3S,5R)-5-methyl-2-oxo-pyrrolidin-3-yl]methyl]-2,3-dioxo-propyl]carbamoyl]-4-(difluoromethyl)phenyl]-2-(trifluoromethyl)pyridine-4-carboxamide] has an IC50 of 10.4 nM. `C[C@@H]1C[C@@H](C[C@H](NC(=O)c2c(NC(=O)c3ccnc(C(F)(F)F)c3)cc(F)c(F)c2F)C(=O)C(=O)NC2CC2)C(=O)N1` [Example 233, N-[2-[[(1S)-3-(cyclopropylamino)-1-[[(3S,5R)-5-methyl-2-oxo-pyrrolidin-3-yl]methyl]-2,3-dioxo-propyl]carbamoyl]-3,4,5-trifluoro-phenyl]-2-(trifluoromethyl)pyridine-4-carboxamide] was tested, and the IC50 was 44 nM. For `O=C(NC1CC1)C(=O)[C@H](C[C@@H]1CCCNC1=O)NC(=O)c1cc(Cl)ccc1NC(=O)c1ccnc(C(F)(F)F)c1` [Example 234, N-[4-chloro-2-[[(1S)-3-(cyclopropylamino)-2,3-dioxo-1-[[(3S)-2-oxo-3-piperidyl]methyl]propyl]carbamoyl]phenyl]-2-(trifluoromethyl)pyridine-4-carboxamide], the IC50 was 17.1 nM. Work on `O=C(CCC(F)(F)F)Nc1ccc(Cl)cc1C(=O)N[C@@H](C[C@@H]1CCCNC1=O)C(=O)C(=O)NC1CC1` [Example 235, 5-chloro-N-[(1S)-3-(cyclopropylamino)-2,3-dioxo-1-[[(3S)-2-oxo-3-piperidyl]methyl]propyl]-2-(4,4,4-trifluorobutanoylamino) benzamide] yielded an IC50 of 15.1 nM.
